Assay results from PubChem BioAssay AID1259411 (Chemical Carcinogenesis Research Information System (CCRIS), 2018).
Calls of active or inactive are those of the source. How the calls were made is not given here.

System: rodent carcinogenicity bioassays, tumor incidence
Assay: CCRIS carcinogenicity studies
Source text: The CCRIS database contains chemical records with carcinogenicity, mutagenicity, tumor promotion, and tumor inhibition test results. It was developed by the National Cancer Institute (NCI). Data are derived from studies cited in primary journals, current awareness tools, NCI reports, and other sources. Test results have been reviewed by experts in carcinogenesis and mutagenesis.
CCRIS provides historical information from the years 1985 - 2011. It is no longer updated.
This is an archive assay for CCRIS carcinogenicity studies.

Question: What does the source list for `O=NN1CCCCC1`?
Answer: carcinogen call (Species: HAMSTER, Route: SUBCUTANEOUS, Tumor Site: Type of Lesion: TRACHEA, NASAL CAVITY, ESOPHAGUS, FORESTOMACH, LUNG, LIVER, Tumor Site: Type of Lesion: TRACHEA, NASAL CAVITY, ESOPHAGUS, FORESTOMACH, LUNG, LIVER): active; positive; carcinogen call (Species: HAMSTER, Strain/Sex: SYRIAN/MALE,FEMALE, Route: ORAL, Dose: 0.006, 0.025, 0.05% IN DRINKING WATER FOR LIFE, Dose: 0.006, 0.025, 0.05% IN DRINKING WATER FOR LIFE, Tumor Site: Type of Lesion: RESPIRATORY TRACT (LARYNX, PHARYNX, TRACHEA): PAPILLOMA, EPIDERMOID CARCINOMA, PAPILLARY POLYP, FORESTOMACH: PAPILLOMA): active; positive; carcinogen call (Species: MONKEY, Route: ORAL, Tumor Site: Type of Lesion: LIVER): active; positive; carcinogen call (Species: MOUSE, Route: INTRAPERITONEAL, Tumor Site: Type of Lesion: LUNG): active; positive; carcinogen call (Species: MOUSE, Route: ORAL, Tumor Site: Type of Lesion: FORESTOMACH, LIVER, LUNG, Tumor Site: Type of Lesion: FORESTOMACH, LIVER, LUNG): active; positive; carcinogen call (Species: RAT, Route: INTRAVENOUS, Tumor Site: Type of Lesion: ESOPHAGUS, PHARYNX): active; positive; carcinogen call (Species: RAT, Route: ORAL, Tumor Site: Type of Lesion: ESOPHAGUS, LIVER): active; positive; carcinogen call (Species: RAT, Route: SUBCUTANEOUS, Tumor Site: Type of Lesion: ESOPHAGUS, NASAL CAVITY): active; positive; carcinogen call (Species: RAT, Strain/Sex: F344/FEMALE, Route: ORAL, Dose: 0.9 MILLIMOLAR SOLUTION (100 MG/L) IN DRINKING WATER 5/WK FOR 28 WK, Tumor Site: Type of Lesion: ESOPHAGUS: PAPILLOMA, CARCINOMA): active; positive

Question: For `COC(=O)COc1ccc(Cl)cc1`, which carcinogen call (Species: NEWT, Route: IMMERSION, Dose: 0, 100, 200, 400 PPM 4 D/WK FOR 12 MO (STUDY DURATION: 24 MO), Dose: 0, 100, 200, 400 PPM 4 D/WK FOR 12 MO (STUDY DURATION: 24 MO)) is on record?
Answer: inactive; negative

Question: Which results are given for `CN(C)C(=O)Nc1ccc(Cl)cc1`?
Answer: carcinogen call (Species: MOUSE, Strain/Sex: B6C3F1/FEMALE, Route: ORAL, Dose: 0, 5000, 10000 PPM IN DIET FOR 103 WK (STUDY DURATION: 107 WK), Dose: 0, 5000, 10000 PPM IN DIET FOR 103 WK (STUDY DURATION: 107 WK)): inactive; negative; carcinogen call (Species: MOUSE, Strain/Sex: B6C3F1/MALE, Route: ORAL, Dose: 0, 5000, 10000 PPM IN DIET FOR 103 WK (STUDY DURATION: 107 WK), Dose: 0, 5000, 10000 PPM IN DIET FOR 103 WK (STUDY DURATION: 107 WK)): inactive; negative; carcinogen call (Species: RAT, Strain/Sex: F344/FEMALE, Route: ORAL, Dose: 0, 750, 1500 PPM IN DIET FOR 103 WK (STUDY DURATION: 106 WK), Dose: 0, 750, 1500 PPM IN DIET FOR 103 WK (STUDY DURATION: 106 WK)): inactive; negative; carcinogen call (Species: RAT, Strain/Sex: F344/MALE, Route: ORAL, Dose: 0, 750, 1500 PPM IN DIET FOR 103 WK (STUDY DURATION: 106 WK), Dose: 0, 750, 1500 PPM IN DIET FOR 103 WK (STUDY DURATION: 106 WK), Tumor Site: Type of Lesion: LIVER: NEOPLASTIC NODULE, NEOPLASTIC NODULE OR CARCINOMA, KIDNEY: TUBULAR CELL ADENOMA, TUBULAR CELL ADENOCARCINOMA): active; positive

Question: How did the carcinogen call (Species: HAMSTER, Strain/Sex: SYRIAN/FEMALE, Route: GAVAGE, Dose: 0, 16 MG/ML ((0.2 ML OF A SOLUTION IN ETHYL ACETATE/CORN OIL (1:2)) 1/WK FOR 24 WK (STUDY DURATION: LIFE SPAN), Tumor Site: Type of Lesion: LIVER: HEMANGIOSARCOMA, SPLEEN: HEMANGIOSARCOMA, FORESTOMACH: SQUAMOUS CELL CARCINOMA OR PAPILLOMA, Tumor Site: Type of Lesion: LIVER: HEMANGIOSARCOMA, SPLEEN: HEMANGIOSARCOMA, FORESTOMACH: SQUAMOUS CELL CARCINOMA OR PAPILLOMA) turn out when `CC(O)CN(N=O)C(N)=O` (stereo not given) was run?
Answer: active; positive

Question: What about the carcinogen call (Species: RAT, Strain/Sex: F344/FEMALE, Route: GAVAGE, Dose: 0, 8 MG/ML (TOTAL DOSE 0; 0.4 MMOL) IN 2 ML ETHYL ACETATE AND CORN OIL (1:2) 2/WK FOR 18 WK (STUDY DURATION: LIFETIME), Dose: 0, 8 MG/ML (TOTAL DOSE 0; 0.4 MMOL) IN 2 ML ETHYL ACETATE AND CORN OIL (1:2) 2/WK FOR 18 WK (STUDY DURATION: LIFETIME), Tumor Site: Type of Lesion: THYMUS: LYMPHOMA) of the same compound?
Answer: active; positive

Question: And the carcinogen call (Species: RAT, Strain/Sex: F344/FEMALE, Route: GAVAGE, Dose: 0, 8 MG/ML IN 0.2 ML ETHYL ACETATE AND CORN OIL 2/WK FOR 18 WK (STUDY DURATION: LIFESPAN), Tumor Site: Type of Lesion: THYMUS: TUMOR)?
Answer: active; positive

Question: What about the carcinogen call (Species: RAT, Strain/Sex: F344/FEMALE, Route: INTRAVESICULAR, Dose: 0, 3.2 MG 2/WK FOR 30 WK (STUDY DURATION: LIFETIME), Tumor Site: Type of Lesion: BLADDER: TUMOR) of the same compound?
Answer: active; positive

Question: What about the carcinogen call (Species: RAT, Strain/Sex: F344/MALE, Route: GAVAGE, Dose: 0, 8 MG/ML (TOTAL DOSE 0; 0.4 MMOL) IN 2 ML ETHYL ACETATE AND CORN OIL (1:2) 2/WK FOR 18 WK (STUDY DURATION: LIFETIME), Dose: 0, 8 MG/ML (TOTAL DOSE 0; 0.4 MMOL) IN 2 ML ETHYL ACETATE AND CORN OIL (1:2) 2/WK FOR 18 WK (STUDY DURATION: LIFETIME), Tumor Site: Type of Lesion: THYMUS: LYMPHOMA) of the same compound?
Answer: active; positive

Question: What about the carcinogen call (Species: RAT, Strain/Sex: F344/MALE, Route: GAVAGE, Dose: 0, 8 MG/ML IN 0.2 ML ETHYL ACETATE AND CORN OIL 2/WK FOR 18 WK (STUDY DURATION: LIFESPAN), Tumor Site: Type of Lesion: THYMUS: TUMOR) of the same compound?
Answer: active; positive

Question: For `OC[C@@H](O)[C@@H](O[C@@H]1O[C@H](CO)[C@H](O)[C@H](O)[C@H]1O)[C@H](O)[C@@H](O)CO`, which carcinogen call (Species: MOUSE, Strain/Sex: CPB:SWISS/FEMALE, Route: ORAL, Dose: 0, 2, 5, 10% IN DIET FOR 104 WK (STUDY DURATION: 734 D), Dose: 0, 2, 5, 10% IN DIET FOR 104 WK (STUDY DURATION: 734 D)) is on record?
Answer: inactive; negative

Question: And the carcinogen call (Species: MOUSE, Strain/Sex: CPB:SWISS/MALE, Route: ORAL, Dose: 0, 2, 5, 10% IN DIET FOR 104 WK (STUDY DURATION: 730 D), Dose: 0, 2, 5, 10% IN DIET FOR 104 WK (STUDY DURATION: 730 D))?
Answer: inactive; negative

Question: What about the carcinogen call (Species: RAT, Strain/Sex: SPF/FEMALE, Route: ORAL, Dose: 0, 2, 5, 10% IN DIET FOR DURATION OF STUDY ADMINISTERED TO OFFSPRING OF RATS FED THE SAME DIETS (STUDY DURATION: 130 WK), Dose: 0, 2, 5, 10% IN DIET FOR DURATION OF STUDY ADMINISTERED TO OFFSPRING OF RATS FED THE SAME DIETS (STUDY DURATION: 130 WK)) of the same compound?
Answer: inactive; negative

Question: And the carcinogen call (Species: RAT, Strain/Sex: SPF/MALE, Route: ORAL, Dose: 0, 2, 5, 10% IN DIET FOR DURATION OF STUDY ADMINISTERED TO OFFSPRING OF RATS FED THE SAME DIETS (STUDY DURATION: 130 WK), Dose: 0, 2, 5, 10% IN DIET FOR DURATION OF STUDY ADMINISTERED TO OFFSPRING OF RATS FED THE SAME DIETS (STUDY DURATION: 130 WK), Tumor Site: Type of Lesion: TESTES: LEYDIG CELL TUMOR)?
Answer: active; positive

Question: How did the carcinogen call (Species: RAT, Strain/Sex: F344/MALE, Route: SUBCUTANEOUS, Dose: 38 UMOL/KG IN OLIVE OIL 1/WK FOR 10 WK, Tumor Site: Type of Lesion: INJECTION SITE: MALIGNANT FIBROUS HISTIOCYTOMA) turn out when `CCCCN(N=O)C(CCC)OO` (stereo not given) was run?
Answer: active; positive

Question: `C=COc1ccc([N+](=O)[O-])cc1` was tested. Which carcinogen call (Species: MOUSE, Strain/Sex: B6C3F1/MALE, Route: INTRAPERITONEAL, Dose: 0, 60, 300 NMOL/G BW IN 10 µL TRIOCTANOIN ONCE (STUDY DURATION: 10 MO), Dose: 0, 60, 300 NMOL/G BW IN 10 µL TRIOCTANOIN ONCE (STUDY DURATION: 10 MO), Tumor Site: Type of Lesion: LIVER: HEPATOMA) did it give?
Answer: active; positive

Question: Which results are given for `NC(=S)NNC(N)=S`?
Answer: carcinogen call (Species: MOUSE, Strain/Sex: B6C3F1/FEMALE, Route: ORAL, Dose: 0, 1.0, 2.0% OF DIET FOR 78 WK (STUDY DURATION: 94 WK), Dose: 0, 1.0, 2.0% OF DIET FOR 78 WK (STUDY DURATION: 94 WK), Tumor Site: Type of Lesion: LIVER: HEPATOCELLULAR CARCINOMA): equivocal; carcinogen call (Species: MOUSE, Strain/Sex: B6C3F1/MALE, Route: ORAL, Dose: 0, 1.0, 2.0% OF DIET FOR 78 WK (STUDY DURATION: 94 WK), Dose: 0, 1.0, 2.0% OF DIET FOR 78 WK (STUDY DURATION: 94 WK)): inactive; negative; carcinogen call (Species: RAT, Strain/Sex: F344/FEMALE, Route: ORAL, Dose: 0, 0.6, 1.2% OF DIET FOR 78 WK (STUDY DURATION: 109 WK), Dose: 0, 0.6, 1.2% OF DIET FOR 78 WK (STUDY DURATION: 109 WK)): inactive; negative; carcinogen call (Species: RAT, Strain/Sex: F344/MALE, Route: ORAL, Dose: 0, 0.6, 1.2% OF DIET OR 78 WK (STUDY DURATION: 109 WK), Dose: 0, 0.6, 1.2% OF DIET OR 78 WK (STUDY DURATION: 109 WK)): inactive; negative
